Patent publication US20240382484A1, “COMPOSITION FOR TREATING, PREVENTING, OR AMELIORATING MELANOMA AND METHOD THEREOF” (Thomas Jefferson University, priority 2021, published 2024)

What was measured:
Format in all cases: cell-based, human
[1] = system: WM1361A and WM1366 PDPK1-depleted clones; assay: Cell growth of PDPK1-depleted (sgRNA knockout) clones in response to MEKi; details: for decrease of the half-maximum inhibitory concentration by PDPK1 depletion: WM1361A and WM1366, 5 days, PDPK1-depleted clones vs parental clone; for cell proliferation, MEKi combined with PDPK1 depletion: WM1361A and WM1366 KO1 and KO2 clones
Description: (§1) FIGS. 3A-3B: PDPK1 depletion by two individual sgRNAs in WM1361A (FIG. 3A) or WM1366 (FIG. 3B) cells were analyzed by immunoblot. FIGS. 3C-3D, Cell growth of WM1361A (FIG. 3C) or WM1366 (FIG. 3D) parental clones (Cas9) and PDPK1-depleted clones by two individual sgRNAs (KO1 and KO2) treated with vehicle (DMSO) or trametinib (Tram) was monitored by IncuCyte every 2 hours. Media were replaced twice with fresh drugs during culture. Data are represented as the mean±SEM of three biological independent experiments. p values were calculated with an unpaired two-tailed t test. n.s., not significant. FIGS. 3E-3F, Cellular growth in response to trametinib at the indicated doses for 5 days in WM1361A (FIG. 3E) or WM1366 (FIG. 3F) parental clone (iCas9) and PDPK1-depleted clones (KO1 and K02). Media were replaced once with drugs during culture. Data are represented as dots of three biological independent experiments. FIGS. 3G-3J, PDPK1 knockdown by ON-target control siRNAs and two individual siRNAs in SK-MEL-30 (FIG. 3G) or SK-MEL-173 cells (FIG. 3I) was analyzed by immunoblot. Cellular growth in response to trametinib at the indicated doses for 3 days in SK-MEL-30 (FIG. 3H) or SK-MEL-173 (FIG. 3J) control cells (siCtrl) and PDPK1-knockdown cells (siPDPK1s). Data are represented as dots of at least three biological independent experiments.
FIG. 12A-12B: Cell growth of WM1361A (FIG. 12A) or WM1366 (FIG. 12B) parental clone (Cas9) and PDPK1-depleted clones (KO1 and K02) treated with vehicle (DMSO) or PD0325901 (PD) was monitored by IncuCyte every 2 hours. Media were replaced twice with drugs during culture. Data are represented as the mean±SEM of three biological independent experiment. p values were calculated with an unpaired two-tailed t test. n.s., not significant. FIGS. 12C-12D, Cellular growth in response to PD0325901 at the indicated doses for 5 days in WM1361A (FIG. 12C) or WM1366 (FIG. 12D) parental clone (iCas9) and PDPK1-depleted clones (KO1 and K02). Media were replaced once with drugs during culture. Data are represented as dots of three biological independent experiments. FIG. 12E-12F, Cellular growth in response to PD0325901 at the indicated doses for 3 days in SK-MEL-30 (FIG. 12E) or SK-MEL-173 (FIG. 12F) control cells (siCtrl) and PDPK1-knockdown cells (siPDPK1s). Data are represented as dots of at least three biological independent experiments.
To test whether the synergistic effects of GSK2334470 was PDPK1-dependent, the present study generated PDPK1 knockout clones using high gene-editing efficiency clones of WM1361A and WM1366 cells. Depletion of PDPK1 by two different sgRNAs in both cell lines (FIGS. 3A-3B) attenuated cellular proliferation (FIGS. 3C-3D). […]

[2] = system: WM1361A, WM1366, SK-MEL-30 or SK-MEL-173 cells; assay: 7-day cell growth monitored by IncuCyte; details: 7-day treatment course
Description: FIG. 2A: NRAS mutant melanoma cell line WM1361A, WM1366, SK-MEL-30, SK-MEL-173, 1007 and 1014 were treated for 72 hours as indicated with GSK2334470 and trametinib and analyzed for cell density by IncuCyte. Synergy graphs were generated utilizing Combenefit Software with Loewe method. Data are represented as the mean from three biological independent experiments. FIG. 2B: WM1361A, WM1366, SK-MEL-30 or SK-MEL-173 cells were treated with GSK2334470 (PDPK1i) and trametinib (tram) alone or in combination (comb) at the indicated concentrations for 7 days. Cell growth was monitored by IncuCyte every 2 hours. Media were replaced twice with drugs during culture. Data are represented as the mean±SEM of three biological independent experiments. p values were calculated with an unpaired two-tailed t test. n.s., not significant.
FIG. 11A: WM1361A, WM1366, SK-MEL-30 and SK-MEL-173 cells were treated for 72 hours as indicated with GSK2334470 and PD0325901 and analyzed for cell density by IncuCyte. […] Cell growth was monitored by IncuCyte every 2 hours. Data are represented as the mean±SEM of three biological independent experiments. p values were calculated with an unpaired two-tailed t test. n.s., not significant.
For cell proliferation and drug response, cells were monitored by IncuCyte® (Essen Bioscience, Ann Arbor, MI) every 2 hours.

[3] = system: SK-MEL-30 and SK-MEL-173 PDPK1-knockdown cells; assay: Cellular growth of siRNA PDPK1-knockdown cells in response to MEKi; details: SK-MEL-30 and SK-MEL-173, 3 days, siPDPK1 vs siCtrl
Description: as §1, with “Data are represented as dots of three biological independent experiments.” left out, “Cellular growth in response to trametinib at the indicated doses for 3 days in SK-MEL-30 (FIG. 3H) or SK-MEL-173 (FIG. 3J) control cells (siCtrl) and PDPK1-knockdown cells (siPDPK1s). Data are represented as dots of at least three biological independent experiments.” left out
FIG. 12A-12B: Cell growth of WM1361A (FIG. 12A) or WM1366 (FIG. 12B) parental clone (Cas9) and PDPK1-depleted clones (KO1 and K02) treated with vehicle (DMSO) or PD0325901 (PD) was monitored by IncuCyte every 2 hours. […] Data are represented as the mean±SEM of three biological independent experiment. p values were calculated with an unpaired two-tailed t test. n.s., not significant. […]

O=C(NOC[C@H](O)CO)c1ccc(F)c(F)c1Nc1ccc(I)cc1F [PD0325901, (R)—N-(2,3-dihydroxypropoxy)-3,4-difluoro-2-((2-fluoro-4-iodophenyl)amino)benzamide]
decrease of the half-maximum inhibitory concentration by PDPK1 depletion [1]: approximately 4 fold | cell proliferation, MEKi combined with PDPK1 depletion [1]: effectively inhibited | cell proliferation, MEKi combined with PDPK1i (GSK2334470) [2]: profoundly inhibited | half-maximum inhibitory concentration upon PDPK1 knockdown [3]: decreased

CC(=O)Nc1cccc(-n2c(=O)n(C3CC3)c(=O)c3c(Nc4ccc(I)cc4F)n(C)c(=O)c(C)c32)c1 [trametinib, N-(3-(3-cyclopropyl-5-((2-fluoro-4-iodophenyl)amino)-6,8-dimethyl-2,4,7-trioxo-3,4,6,7-tetrahydropyrido[4,3-d]pyrimidin-1(2H)-yl)phenyl)acetamide]
decrease of the half-maximum inhibitory concentration by PDPK1 depletion [1]: approximately 4 fold | cell proliferation, MEKi combined with PDPK1 depletion [1]: effectively inhibited | cell proliferation, MEKi combined with PDPK1i (GSK2334470) [2]: profoundly inhibited | half-maximum inhibitory concentration upon PDPK1 knockdown [3]: decreased
